In patent US7217726B2, “Antibacterial agents” (Orchid Chemicals & Pharmaceuticals Limited, priority 2002, dated 2007):
Values after ≈ are worked out from the molar mass of the structure shown.

Assays:
E. faecalis ATCC 51299 = experiment: Agar Dilution Method MIC, E. faecalis ATCC 51299; type: cell-based; conditions: Enterococcus faecalis, ATCC51299, Mueller Hinton Agar, 35° Celsius, 20 hours, read-out: Minimum Inhibitory Concentration (MIC in μg/ml)
Protocol: (§1) Briefly, the compounds of invention were weighed, dissolved in Dimethyl Sulfoxide, serially diluted in the same solvent and then incorporated into molten Mueller Hinton Agar in a petridish before solidification, with each petridish containing a different concentration of a compound.
(§2) The Bacterial Inoculum was prepared by touching the tops of 3 to 5 well isolated bacterial colonies with the same morphological appearance from an 18 hour old culture with an inoculating loop, transfering the growth to a tube containing 5 ml of normal saline and adjusting the turbidity of the saline suspension to 0.5 Macfarland Turbidity Standard equivalent to a bacterial population of 1.5×10^8 colony forming units (CFU) per millilitre of suspension.
(§3) The bacterial inoculum prepared in the above manner was inoculated onto petri dishes containing Mueller Hinton Agar which had earlier been incorporated with different dilutions of the compounds of invention by a Multipoint Inoculator with each inoculum spot containing approximately 1×10^4 colony forming units (CFU) of bacteria.
(§4) The inoculated petridishes were incubated at 35° Celsius in an ambient atmosphere for 20 hours. Petridishes containing different concentrations of Vancomycin and Oxacillin and inoculated with Staphylococcus aureus, Coagulase Negative Staphylococci and Enterococci were incubated for 24 hours.

S. aureus MRO 00013 = experiment: Agar Dilution Method MIC, S. aureus MRO 00013; type: cell-based; conditions: Staphylococcus aureus, MRO00013, Mueller Hinton Agar, 35° Celsius, 20 hours, read-out: Minimum Inhibitory Concentration (MIC in μg/ml)
Protocol: as §1, §2, §3, §4

S. aureus MRO 00003 = experiment: Agar Dilution Method MIC, S. aureus MRO 00003; type: cell-based; conditions: Staphylococcus aureus, MRO00003, Mueller Hinton Agar, 35° Celsius, 20 hours, read-out: Minimum Inhibitory Concentration (MIC in μg/ml)
Protocol: as §1, §2, §3, §4

S. epidermidis MRO 02046 = experiment: Agar Dilution Method MIC, S. epidermidis MRO 02046; type: cell-based; conditions: Staphylococcus epidermidis, MRO02046, Mueller Hinton Agar, 35° Celsius, 20 hours, read-out: Minimum Inhibitory Concentration (MIC in μg/ml)
Protocol: as §1, §2, §3, §4

S. aureus MRO 00030 = experiment: Agar Dilution Method MIC, S. aureus MRO 00030; type: cell-based; conditions: Staphylococcus aureus, MRO00030, Mueller Hinton Agar, 35° Celsius, 20 hours, read-out: Minimum Inhibitory Concentration (MIC in μg/ml)
Protocol: as §1, §2, §3, §4

S. aureus ATCC 29213 = experiment: Agar Dilution Method MIC, S. aureus ATCC 29213; type: cell-based; conditions: Staphylococcus aureus, ATCC29213, Mueller Hinton Agar, 35° Celsius, 20 hours, read-out: Minimum Inhibitory Concentration (MIC in μg/ml)
Protocol: as §1, §2, §3, §4

[1] = test system: M. catarrhalis ATCC 43617; experiment: Agar Dilution Method MIC, M. catarrhalis ATCC 43617; type: cell-based, Morexella catarrhalis; conditions: Moraxella catarrhalis, ATCC43617, Mueller Hinton Agar, 35° Celsius, 20 hours, read-out: Minimum Inhibitory Concentration (MIC in μg/ml)
Protocol: as §1, §2, §3, §4

S. aureus MRO 00055 = experiment: Agar Dilution Method MIC, S. aureus MRO 00055; type: cell-based; conditions: Staphylococcus aureus, MRO00055, Mueller Hinton Agar, 35° Celsius, 20 hours, read-out: Minimum Inhibitory Concentration (MIC in μg/ml)
Protocol: as §1, §2, §3, §4

S. aureus MRO 00048 = experiment: Agar Dilution Method MIC, S. aureus MRO 00048; type: cell-based; conditions: Staphylococcus aureus, MRO00048, Mueller Hinton Agar, 35° Celsius, 20 hours, read-out: Minimum Inhibitory Concentration (MIC in μg/ml)
Protocol: as §1, §2, §3, §4

[2] = test system: M. catarrhalis ATCC 43628; experiment: Agar Dilution Method MIC, M. catarrhalis ATCC 43628; type: cell-based, Morexella catarrhalis; conditions: Moraxella catarrhalis, ATCC43628, Mueller Hinton Agar, 35° Celsius, 20 hours, read-out: Minimum Inhibitory Concentration (MIC in μg/ml)
Protocol: as §1, §2, §3, §4

E. faecalis ATCC 29212 = experiment: Agar Dilution Method MIC, E. faecalis ATCC 29212; type: cell-based; conditions: Enterococcus faecalis, ATCC29212, Mueller Hinton Agar, 35° Celsius, 20 hours, read-out: Minimum Inhibitory Concentration (MIC in μg/ml)
Protocol: as §1, §2, §3, §4

S. aureus ATCC 43300 = experiment: Agar Dilution Method MIC, S. aureus ATCC 43300; type: cell-based; conditions: Staphylococcus aureus, ATCC43300, Mueller Hinton Agar, 35° Celsius, 20 hours, read-out: Minimum Inhibitory Concentration (MIC in μg/ml)
Protocol: as §1, §2, §3, §4

S. aureus MRO 00001 = experiment: Agar Dilution Method MIC, S. aureus MRO 00001; type: cell-based; conditions: Staphylococcus aureus, MRO00001, Mueller Hinton Agar, 35° Celsius, 20 hours, read-out: Minimum Inhibitory Concentration (MIC in μg/ml)
Protocol: as §1, §2, §3, §4

E. fecalis MRO 04045 = experiment: Agar Dilution Method MIC, E. fecalis MRO 04045; type: cell-based; conditions: Enterococcus faecalis, MRO04045, Mueller Hinton Agar, 35° Celsius, 20 hours, read-out: Minimum Inhibitory Concentration (MIC in μg/ml)
Protocol: as §1, §2, §3, §4

[3] = test system: M. catarrhalis ATCC 43627; experiment: Agar Dilution Method MIC, M. catarrhalis ATCC 43627; type: cell-based, Morexella catarrhalis; conditions: Moraxella catarrhalis, ATCC43627, Mueller Hinton Agar, 35° Celsius, 20 hours, read-out: Minimum Inhibitory Concentration (MIC in μg/ml)
Protocol: as §1, §2, §3, §4

S. aureus MRO 00059 = experiment: Agar Dilution Method MIC, S. aureus MRO 00059; type: cell-based; conditions: Staphylococcus aureus, MRO00059, Mueller Hinton Agar, 35° Celsius, 20 hours, read-out: Minimum Inhibitory Concentration (MIC in μg/ml)
Protocol: as §1, §2, §3, §4

Compound	MIC (E. faecalis ATCC 51299)	MIC (S. aureus MRO 00013)	MIC (S. aureus MRO 00003)	MIC (S. epidermidis MRO 02046)	MIC (S. aureus MRO 00030)	MIC (S. aureus ATCC 29213)	MIC [1]	MIC (S. aureus MRO 00055)	MIC (S. aureus MRO 00048)	MIC [2]	MIC (E. faecalis ATCC 29212)	MIC (S. aureus ATCC 43300)	MIC (S. aureus MRO 00001)	MIC (E. fecalis MRO 04045)	MIC [3]	MIC (S. aureus MRO 00059)
CC(=S)NC[C@H]1CN(c2ccc(N3CCN(C(=S)c4ccc([N+](=O)[O-])o4)CC3)c(F)c2)C(=O)O1 [Example 5, (S)-N-[3-[3-Fluoro-4-[4-(5-nitrofuran-2-ylthiocarbonyl)piperazin-1-yl]phenyl]-2-oxooxazolidin-5-ylmethyl]thioacetamide]	0.5 µg/mL (≈ 0.985 µM)	0.5 µg/mL (≈ 0.985 µM)	0.5 µg/mL (≈ 0.985 µM)	0.25 µg/mL (≈ 0.493 µM)	0.5 µg/mL (≈ 0.985 µM)	0.5 µg/mL (≈ 0.985 µM)	0.5 µg/mL (≈ 0.985 µM)	0.5 µg/mL (≈ 0.985 µM)	0.25 µg/mL (≈ 0.493 µM)	0.5 µg/mL (≈ 0.985 µM)	0.5 µg/mL (≈ 0.985 µM)	0.25 µg/mL (≈ 0.493 µM)	0.5 µg/mL (≈ 0.985 µM)	1 µg/mL (≈ 1.97 µM)	1 µg/mL (≈ 1.97 µM)	0.5 µg/mL (≈ 0.985 µM)
CC(=S)NC[C@H]1CN(c2ccc(N3CCN(C(=S)c4ccsc4)CC3)c(F)c2)C(=O)O1 [Example 1, (S)-N-[3-[3-fluoro-4-[4(thiophen-3-ylthiocarbonyl)piperazin-1-yl]phenyl]-2-oxooxazolidin-5-ylmethyl]thioacetamide]	0.5 µg/mL (≈ 1.04 µM)	0.5 µg/mL (≈ 1.04 µM)	0.5 µg/mL (≈ 1.04 µM)	0.25 µg/mL (≈ 0.522 µM)	0.5 µg/mL (≈ 1.04 µM)	0.25 µg/mL (≈ 0.522 µM)	1 µg/mL (≈ 2.09 µM)	0.5 µg/mL (≈ 1.04 µM)	0.25 µg/mL (≈ 0.522 µM)	1 µg/mL (≈ 2.09 µM)	0.5 µg/mL (≈ 1.04 µM)	0.25 µg/mL (≈ 0.522 µM)	0.25 µg/mL (≈ 0.522 µM)	0.5 µg/mL (≈ 1.04 µM)	1 µg/mL (≈ 2.09 µM)	0.5 µg/mL (≈ 1.04 µM)
CC(=S)NC[C@H]1CN(c2ccc(N3CCN(C(=S)c4cccs4)CC3)c(F)c2)C(=O)O1 [Example 3, (S)-N-[3-[3-Fluoro-4-[4-(thiophen-2-ylthiocarbonyl)piperazin-1-yl]phenyl]-2-oxooxazolidin-5-ylmethyl]thioacetamide]	0.25 µg/mL (≈ 0.522 µM)	1 µg/mL (≈ 2.09 µM)	1 µg/mL (≈ 2.09 µM)	0.5 µg/mL (≈ 1.04 µM)	0.5 µg/mL (≈ 1.04 µM)	0.5 µg/mL (≈ 1.04 µM)	1 µg/mL (≈ 2.09 µM)	1 µg/mL (≈ 2.09 µM)	0.25 µg/mL (≈ 0.522 µM)	1 µg/mL (≈ 2.09 µM)	0.5 µg/mL (≈ 1.04 µM)	0.25 µg/mL (≈ 0.522 µM)	0.5 µg/mL (≈ 1.04 µM)	1 µg/mL (≈ 2.09 µM)	1 µg/mL (≈ 2.09 µM)	0.25 µg/mL (≈ 0.522 µM)
CC(=S)NC[C@H]1CN(c2ccc(N3CCN(C(=S)NC(=O)c4ccccc4)CC3)c(F)c2)C(=O)O1 [Example 47]	0.25 µg/mL (≈ 0.485 µM)	0.5 µg/mL (≈ 0.97 µM)	0.5 µg/mL (≈ 0.97 µM)	0.25 µg/mL (≈ 0.485 µM)	0.5 µg/mL (≈ 0.97 µM)	0.5 µg/mL (≈ 0.97 µM)		0.5 µg/mL (≈ 0.97 µM)	0.25 µg/mL (≈ 0.485 µM)		0.25 µg/mL (≈ 0.485 µM)	0.25 µg/mL (≈ 0.485 µM)	0.25 µg/mL (≈ 0.485 µM)	0.25 µg/mL (≈ 0.485 µM)		0.25 µg/mL (≈ 0.485 µM)
CC(=S)NC[C@H]1CN(c2ccc(N3CCN(C(=S)Nc4ccc([N+](=O)[O-])cc4)CC3)c(F)c2)C(=O)O1 [Example 45, (S)-N-[3-[3-Fluoro-4-(4-(4-nitrophenyl)thiocarbamidopiperazin-1-yl)phenyl]-2-oxooxazolidin-5-methyl]thioacetamide]	0.25 µg/mL (≈ 0.469 µM)	0.5 µg/mL (≈ 0.939 µM)	0.5 µg/mL (≈ 0.939 µM)	0.25 µg/mL (≈ 0.469 µM)	0.5 µg/mL (≈ 0.939 µM)	0.5 µg/mL (≈ 0.939 µM)		0.5 µg/mL (≈ 0.939 µM)	0.25 µg/mL (≈ 0.469 µM)		0.25 µg/mL (≈ 0.469 µM)	0.25 µg/mL (≈ 0.469 µM)	0.25 µg/mL (≈ 0.469 µM)	0.25 µg/mL (≈ 0.469 µM)		0.5 µg/mL (≈ 0.939 µM)
